# In ChEMBL document CHEMBL3351732, “Potent bisimidazole-based HCV NS5A inhibitors bearing annulated tricyclic motifs” (Bioorg Med Chem Lett, 2014):
# What was measured:
# Hepatitis C virus [1] = assay: Antiviral activity against HCV genotype 1a infected in human HuH7 cells by luciferase reporter gene assay; type: functional, cell-based, Hepacivirus hominis; details: subtype 1a, Huh-7
# Hepatitis C virus [2] = assay: Antiviral activity against HCV genotype 1b infected in human HuH7 cells by luciferase reporter gene assay; type: functional, cell-based, Hepacivirus hominis; details: Huh-7
# Hepatitis C virus [3] = assay: Antiviral activity against HCV genotype 3a infected in human HuH7 cells by luciferase reporter gene assay; type: functional, cell-based, Hepacivirus hominis; details: Huh-7
# [4] = Clearance in Sprague-Dawley rat at 1 mg/kg, iv; type: ADME, organism-based; parameters: dose 1 mg/kg, route intravenous; details: Sprague-Dawley, in vivo
# [5] = Volume of distribution at steady state in Sprague-Dawley rat at 1 mg/kg, iv; type: ADME, organism-based; parameters: dose 1 mg/kg, route intravenous; details: in vivo, read-out: Vdss
# [6] = Half life in Sprague-Dawley rat at 1 mg/kg, iv; type: ADME, organism-based; parameters: dose 1 mg/kg, route intravenous; details: in vivo
# [7] = AUC(last) in Sprague-Dawley rat at 1 mg/kg, iv; type: ADME, organism-based, Plasma; parameters: time 0 - last, dose 1 mg/kg, route intravenous; details: Sprague-Dawley, plasma
# [8] = Tmax in Sprague-Dawley rat at 5 mg/kg, po; type: ADME, organism-based; parameters: dose 5 mg/kg, route oral; details: in vivo
# [9] = Cmax in Sprague-Dawley rat at 5 mg/kg, po; type: ADME, organism-based; parameters: dose 5 mg/kg, route oral; details: in vivo
# [10] = AUC(last) in Sprague-Dawley rat at 5 mg/kg, po; type: ADME, organism-based; parameters: dose 5 mg/kg, route oral, time 0 - last; details: plasma
# [11] = Oral bioavailability in Sprague-Dawley rat at 5 mg/kg; type: ADME, organism-based; details: in vivo
# [12] = Drug level in Sprague-Dawley rat liver at 5 mg/kg, po measured 4 hrs post dose; type: ADME, organism-based; parameters: dose 5 mg/kg, route oral; details: read-out: Drug uptake
# [13] = Plasma concentration in Sprague-Dawley rat at 5 mg/kg, po measured 4 hrs post dose; type: ADME, organism-based; parameters: dose 5 mg/kg, route oral
# [14] = Tmax in Sprague-Dawley rat at 75 mg/kg, po; type: ADME, organism-based; parameters: dose 75 mg/kg, route oral; details: in vivo
# [15] = Cmax in Sprague-Dawley rat at 75 mg/kg, po; type: ADME, organism-based; parameters: dose 75 mg/kg, route oral; details: in vivo
# [16] = AUC(last) in Sprague-Dawley rat at 75 mg/kg, po; type: ADME, organism-based; parameters: time 0 - last, dose 75 mg/kg, route oral; details: plasma
# [17] = Tmax in Sprague-Dawley rat at 250 mg/kg, po; type: ADME, organism-based; parameters: dose 250 mg/kg, route oral; details: in vivo
# [18] = Cmax in Sprague-Dawley rat at 250 mg/kg, po; type: ADME, organism-based; parameters: dose 250 mg/kg, route oral; details: in vivo
# [19] = AUC(last) in Sprague-Dawley rat at 250 mg/kg, po; type: ADME, organism-based; parameters: time 0 - last, dose 250 mg/kg, route oral; details: plasma
# [20] = Clearance in beagle dog at 1 mg/kg, iv; type: ADME, organism-based, Canis lupus familiaris; parameters: dose 1 mg/kg, route intravenous; details: in vivo
# [21] = Volume of distribution at steady state in beagle dog at 1 mg/kg, iv; type: ADME, organism-based, Canis lupus familiaris; parameters: dose 1 mg/kg, route intravenous; details: in vivo, read-out: Vdss
# [22] = Half life in beagle dog at 1 mg/kg, iv; type: ADME, organism-based, Canis lupus familiaris; parameters: dose 1 mg/kg, route intravenous; details: in vivo
# [23] = AUC(last) in beagle dog at 1 mg/kg, iv; type: ADME, organism-based, Canis lupus familiaris; parameters: time 0 - last, dose 1 mg/kg, route intravenous; details: plasma
# [24] = Tmax in beagle dog at 5 mg/kg, po; type: ADME, organism-based, Canis lupus familiaris; parameters: dose 5 mg/kg, route oral; details: in vivo
# [25] = Cmax in beagle dog at 5 mg/kg, po; type: ADME, organism-based, Canis lupus familiaris; parameters: dose 5 mg/kg, route oral; details: in vivo
# [26] = AUC(last) in beagle dog at 5 mg/kg, po; type: ADME, organism-based, Canis lupus familiaris; parameters: time 0 - last, dose 5 mg/kg, route oral; details: plasma
# [27] = Oral bioavailability in beagle dog at 5 mg/kg; type: ADME, organism-based, Canis lupus familiaris; details: in vivo
# [28] = Tmax in beagle dog at 75 mg/kg, po; type: ADME, organism-based, Canis lupus familiaris; parameters: dose 75 mg/kg, route oral; details: in vivo
# [29] = Cmax in beagle dog at 75 mg/kg, po; type: ADME, organism-based, Canis lupus familiaris; parameters: dose 75 mg/kg, route oral; details: in vivo
# [30] = AUC(last) in beagle dog at 75 mg/kg, po; type: ADME, organism-based, Canis lupus familiaris; parameters: time 0 - last, dose 75 mg/kg, route oral; details: plasma
# [31] = Tmax in beagle dog at 250 mg/kg, po; type: ADME, organism-based, Canis lupus familiaris; parameters: dose 250 mg/kg, route oral; details: in vivo
# [32] = Cmax in beagle dog at 250 mg/kg, po; type: ADME, organism-based, Canis lupus familiaris; parameters: dose 250 mg/kg, route oral; details: in vivo
# [33] = AUC(last) in beagle dog at 250 mg/kg, po; type: ADME, organism-based, Canis lupus familiaris; parameters: dose 250 mg/kg, route oral, time 0 - last; details: plasma
# [34] = Clearance in cynomolgus monkey at 1 mg/kg, iv; type: ADME, organism-based, Macaca fascicularis; parameters: dose 1 mg/kg, route intravenous; details: in vivo
# [35] = Volume of distribution at steady state in cynomolgus monkey at 1 mg/kg, iv; type: ADME, organism-based, Macaca fascicularis; parameters: dose 1 mg/kg, route intravenous; details: in vivo, read-out: Vdss
# [36] = Half life in cynomolgus monkey at 1 mg/kg, iv; type: ADME, organism-based, Macaca fascicularis; parameters: dose 1 mg/kg, route intravenous; details: in vivo
# [37] = AUC(last) in cynomolgus monkey at 1 mg/kg, iv; type: ADME, organism-based, Macaca fascicularis; parameters: time 0 - last, dose 1 mg/kg, route intravenous; details: plasma
# [38] = Tmax in cynomolgus monkey at 5 mg/kg, po; type: ADME, organism-based, Macaca fascicularis; parameters: dose 5 mg/kg, route oral; details: in vivo
# [39] = Cmax in cynomolgus monkey at 5 mg/kg, po; type: ADME, organism-based, Macaca fascicularis; parameters: dose 5 mg/kg, route oral; details: in vivo
# [40] = AUC(last) in cynomolgus monkey at 5 mg/kg, po; type: ADME, organism-based, Macaca fascicularis; parameters: time 0 - last, dose 5 mg/kg, route oral; details: plasma
# [41] = Oral bioavailability in cynomolgus monkey at 5 mg/kg; type: ADME, organism-based, Macaca fascicularis; details: in vivo
# [42] = Tmax in cynomolgus monkey at 75 mg/kg, po; type: ADME, organism-based, Macaca fascicularis; parameters: dose 75 mg/kg, route oral; details: in vivo
# [43] = Cmax in cynomolgus monkey at 75 mg/kg, po; type: ADME, organism-based, Macaca fascicularis; parameters: dose 75 mg/kg, route oral; details: in vivo
# [44] = AUC(last) in cynomolgus monkey at 75 mg/kg, po; type: ADME, organism-based, Macaca fascicularis; parameters: time 0 - last, dose 75 mg/kg, route oral; details: plasma
# [45] = Tmax in cynomolgus monkey at 250 mg/kg, po; type: ADME, organism-based, Macaca fascicularis; parameters: dose 250 mg/kg, route oral; details: in vivo
# [46] = Cmax in cynomolgus monkey at 250 mg/kg, po; type: ADME, organism-based, Macaca fascicularis; parameters: dose 250 mg/kg, route oral; details: in vivo
# [47] = AUC(last) in cynomolgus monkey at 250 mg/kg, po; type: ADME, organism-based, Macaca fascicularis; parameters: time 0 - last, dose 250 mg/kg, route oral; details: plasma
# Hepatitis C virus [48] = assay: Antiviral activity against HCV genotype 4a infected in human HuH7 cells by luciferase reporter gene assay; type: functional, cell-based, Hepacivirus hominis; details: Huh-7
# Hepatitis C virus [49] = assay: Antiviral activity against HCV genotype 5a infected in human HuH7 cells by luciferase reporter gene assay; type: functional, cell-based, Hepacivirus hominis; details: Huh-7
# Hepatitis C virus [50] = assay: Antiviral activity against HCV genotype 6a infected in human HuH7 cells by luciferase reporter gene assay; type: functional, cell-based, Hepacivirus hominis; details: Huh-7
# [51] = Tmax in Sprague-Dawley rat at 5 mg/kg, po formulated with 5%MC, 95% saline; type: ADME, organism-based; parameters: dose 5 mg/kg, route oral; details: in vivo
# [52] = Cmax in Sprague-Dawley rat at 5 mg/kg, po formulated with 5%MC, 95% saline; type: ADME, organism-based; parameters: dose 5 mg/kg, route oral; details: in vivo
# [53] = AUC(last) in Sprague-Dawley rat at 5 mg/kg, po formulated with 5%MC, 95% saline; type: ADME, organism-based; parameters: time 0 - last, dose 5 mg/kg, route oral; details: plasma
# [54] = Oral bioavailability in Sprague-Dawley rat at 5 mg/kg formulated with 5%MC, 95% saline; type: ADME, organism-based; details: in vivo
smiles,measurement,setting,value
COC(=O)N[C@H](C(=O)N1CCC[C@H]1c1ncc(-c2ccc3c(c2)Oc2ccc(-c4cnc([C@@H]5CCCN5C(=O)[C@@H](NC(=O)OC)C(C)C)[nH]4)cc2C3(C)C)[nH]1)C(C)C,EC50,Hepatitis C virus [1],0.073 nM
same,EC50,Hepatitis C virus [2],0.011 nM
same,EC50,Hepatitis C virus [3],0.29 nM
same,clearance,[4],17.8 mL/min/kg
same,Vd,[5],1.8 L/kg
same,half-life,[6],1.41 h
same,AUC(0-t),[7],926 ng·h/mL
same,Tmax,[8],3 h
same,Cmax,[9],874 ng/mL
same,AUC(0-t),[10],5250 ng·h/mL
same,bioavailability,[11],112%
same,concentration at 4 h,[12],2610 ng/mL
same,concentration at 4 h,[13],833 ng/mL
same,Tmax,[14],4 h
same,Cmax,[15],12400 ng/mL
same,AUC(0-t),[16],137000 ng·h/mL
same,Tmax,[17],3.33 h
same,Cmax,[18],16200 ng/mL
same,AUC(0-t),[19],187000 ng·h/mL
same,clearance,[20],2.67 mL/min/kg
same,Vd,[21],0.74 L/kg
same,half-life,[22],3.77 h
same,AUC(0-t),[23],6180 ng·h/mL
same,Tmax,[24],1 h
same,Cmax,[25],2760 ng/mL
same,AUC(0-t),[26],16500 ng·h/mL
same,bioavailability,[27],53.4%
same,Tmax,[28],4 h
same,Cmax,[29],6400 ng/mL
same,AUC(0-t),[30],83000 ng·h/mL
same,Tmax,[31],5 h
same,Cmax,[32],12200 ng/mL
same,AUC(0-t),[33],192000 ng·h/mL
same,clearance,[34],7 mL/min/kg
same,Vd,[35],1.33 L/kg
same,half-life,[36],3.56 h
same,AUC(0-t),[37],2380 ng·h/mL
same,Tmax,[38],3 h
same,Cmax,[39],486 ng/mL
same,AUC(0-t),[40],3370 ng·h/mL
same,bioavailability,[41],28.4%
same,Tmax,[42],3 h
same,Cmax,[43],3600 ng/mL
same,AUC(0-t),[44],17800 ng·h/mL
same,Tmax,[45],4 h
same,Cmax,[46],8100 ng/mL
same,AUC(0-t),[47],46600 ng·h/mL
same,EC50,Hepatitis C virus [48],0.025 nM
same,EC50,Hepatitis C virus [49],0.017 nM
same,EC50,Hepatitis C virus [50],0.062 nM
same,Tmax,[51],0.5 h
same,Cmax,[52],761 ng/mL
same,AUC(0-t),[53],4120 ng·h/mL
same,bioavailability,[54],88.9%
